Activity calls are given as the source filed them.

Results on five compounds are retold here after ChEMBL document CHEMBL1201862, “PubChem BioAssay data set” (2004).

Holding throughout (format): functional
The target of test [1] is T1, Apoptotic protease-activating factor 1 (Homo sapiens, UniProt O14727).
T1 sequence (O14727 whole entry): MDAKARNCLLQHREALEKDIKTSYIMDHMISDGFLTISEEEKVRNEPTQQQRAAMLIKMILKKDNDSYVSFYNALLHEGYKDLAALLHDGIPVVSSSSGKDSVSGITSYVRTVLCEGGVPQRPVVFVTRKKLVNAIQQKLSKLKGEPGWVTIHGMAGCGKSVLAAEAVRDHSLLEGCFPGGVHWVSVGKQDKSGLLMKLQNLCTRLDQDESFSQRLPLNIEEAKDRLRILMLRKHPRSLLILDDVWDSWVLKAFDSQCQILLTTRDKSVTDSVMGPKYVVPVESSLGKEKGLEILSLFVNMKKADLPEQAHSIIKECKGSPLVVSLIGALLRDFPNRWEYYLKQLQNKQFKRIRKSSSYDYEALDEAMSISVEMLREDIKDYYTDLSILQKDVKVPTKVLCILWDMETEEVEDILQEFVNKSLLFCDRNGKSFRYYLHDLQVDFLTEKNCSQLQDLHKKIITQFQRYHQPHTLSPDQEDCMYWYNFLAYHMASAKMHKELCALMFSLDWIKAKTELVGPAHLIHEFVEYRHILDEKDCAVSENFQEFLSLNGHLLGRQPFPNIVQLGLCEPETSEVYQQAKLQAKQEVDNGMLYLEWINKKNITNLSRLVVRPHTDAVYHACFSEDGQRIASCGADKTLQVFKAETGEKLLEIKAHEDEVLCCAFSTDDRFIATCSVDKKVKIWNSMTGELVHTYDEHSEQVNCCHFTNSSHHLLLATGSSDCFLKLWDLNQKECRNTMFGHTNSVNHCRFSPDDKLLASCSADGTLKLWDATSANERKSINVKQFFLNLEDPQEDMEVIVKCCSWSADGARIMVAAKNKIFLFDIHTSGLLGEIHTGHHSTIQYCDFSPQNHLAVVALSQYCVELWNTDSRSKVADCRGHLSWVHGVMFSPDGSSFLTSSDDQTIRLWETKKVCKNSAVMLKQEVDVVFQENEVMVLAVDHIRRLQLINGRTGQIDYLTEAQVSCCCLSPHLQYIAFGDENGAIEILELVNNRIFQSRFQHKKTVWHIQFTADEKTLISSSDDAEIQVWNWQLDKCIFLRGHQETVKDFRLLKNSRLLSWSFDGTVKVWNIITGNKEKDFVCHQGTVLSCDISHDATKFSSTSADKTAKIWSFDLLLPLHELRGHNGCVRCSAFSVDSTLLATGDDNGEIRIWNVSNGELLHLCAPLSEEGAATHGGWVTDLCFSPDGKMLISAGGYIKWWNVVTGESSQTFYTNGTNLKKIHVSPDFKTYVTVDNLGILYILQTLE

Test [2] has as its target Leucine-rich repeat serine/threonine-protein kinase 2 (Homo sapiens, UniProt Q5S007).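 Note: value from a broad kinome-wide panel profiling study in which LRRK2 was one of the kinases tested.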
Test [3] deals with Serine/threonine-protein kinase Nek2 (Homo sapiens, UniProt P51955).
Test [4] concerns the target Rho-associated protein kinase 1 (Homo sapiens, UniProt Q13464).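 Note: measured within a broad kinome-wide panel profiling many kinases.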
Test [5] has as its target Cyclin-dependent kinase 7 (Homo sapiens, UniProt P50613).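 Note: value comes from a kinome-wide kinase profiling panel in which CDK7 is one member.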
Test [6] addresses Serine/threonine-protein kinase TAO1 (Homo sapiens, UniProt Q7L7X3).
For test [7], the target named is Casein kinase I isoform alpha (Homo sapiens, UniProt P48729).
Casein kinase I isoform alpha, sequence (P48729 whole entry, canonical isoform): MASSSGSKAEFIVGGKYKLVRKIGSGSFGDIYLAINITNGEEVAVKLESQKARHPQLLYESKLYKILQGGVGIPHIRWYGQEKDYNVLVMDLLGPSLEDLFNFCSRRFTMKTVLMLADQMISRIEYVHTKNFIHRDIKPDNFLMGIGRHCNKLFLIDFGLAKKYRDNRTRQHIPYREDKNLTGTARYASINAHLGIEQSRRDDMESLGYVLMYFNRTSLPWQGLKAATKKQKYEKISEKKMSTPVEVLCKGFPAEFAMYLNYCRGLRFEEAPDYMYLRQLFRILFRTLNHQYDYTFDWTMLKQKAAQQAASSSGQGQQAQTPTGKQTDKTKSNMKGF
Test [8] addresses Protein kinase C theta type (Homo sapiens, UniProt Q04759). Briefly: Navigating the Kinome. Panel member name: PRKCQ.
For test [9], the target named is High affinity nerve growth factor receptor (Homo sapiens, UniProt P04629).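 Note: NTRK1 tested as one member of a kinome-wide profiling panel.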
The target of test [10] is Mitogen-activated protein kinase 8 (Homo sapiens, UniProt P45983).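 Note: value comes from one member of a kinome-wide kinase profiling panel.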
In test [11] the target is Cyclin-dependent kinase 9 (Homo sapiens, UniProt P50750).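 Note: value from the CDK9 entry of a kinome-spanning kinase panel.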
The target of the next test is T2, Aurora kinase A (Homo sapiens, UniProt O14965).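 Note: value from the Navigating the Kinome kinase panel profiling, panel entry STK6.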
T2 sequence (O14965 whole entry): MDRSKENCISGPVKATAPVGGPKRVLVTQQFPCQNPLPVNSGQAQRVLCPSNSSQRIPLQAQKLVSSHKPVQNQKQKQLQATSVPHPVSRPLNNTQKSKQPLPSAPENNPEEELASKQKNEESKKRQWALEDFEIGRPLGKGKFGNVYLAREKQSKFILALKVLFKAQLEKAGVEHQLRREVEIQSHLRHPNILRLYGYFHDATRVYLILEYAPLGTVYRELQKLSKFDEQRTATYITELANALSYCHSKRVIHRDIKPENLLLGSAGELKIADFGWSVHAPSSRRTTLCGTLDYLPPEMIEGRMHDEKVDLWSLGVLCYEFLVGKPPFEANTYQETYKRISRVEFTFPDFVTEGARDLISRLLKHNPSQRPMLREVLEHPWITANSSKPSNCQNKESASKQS

The target of test [12] is Proto-oncogene tyrosine-protein kinase receptor Ret (Homo sapiens, UniProt P07949).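 Note: measured within a kinome-wide profiling panel, RET as the panel member.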
Test [13] addresses Macrophage colony-stimulating factor 1 receptor (Homo sapiens, UniProt P07333).
Test [14] has as its target Mitogen-activated protein kinase kinase kinase kinase 2 (Homo sapiens, UniProt Q12851).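 Note: measured as one member of a kinome-wide kinase panel, with MAP4K2 as the panel entry.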
Test [15] concerns the target Serine/threonine-protein kinase pim-1 (Homo sapiens, UniProt P11309).
Test [16] addresses cAMP-dependent protein kinase catalytic subunit alpha (Homo sapiens, UniProt P17612).
Test [17] has as its target Tyrosine-protein kinase Fyn (Homo sapiens, UniProt P06241).
Test [18] concerns the target Death-associated protein kinase 3 (Homo sapiens, UniProt O43293).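 Note: measured as one member of a kinome-wide profiling panel.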
Test [19] concerns the target Glycogen synthase kinase-3 alpha (Homo sapiens, UniProt P49840).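 Note: GSK3A result taken from a broad kinome-wide kinase panel.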
Test [20] has as its target Tyrosine-protein kinase ABL1 (Homo sapiens, UniProt P00519).
Test [21] deals with ALK tyrosine kinase receptor (Homo sapiens, UniProt Q9UM73).
ALK tyrosine kinase receptor, sequence (Q9UM73 whole entry): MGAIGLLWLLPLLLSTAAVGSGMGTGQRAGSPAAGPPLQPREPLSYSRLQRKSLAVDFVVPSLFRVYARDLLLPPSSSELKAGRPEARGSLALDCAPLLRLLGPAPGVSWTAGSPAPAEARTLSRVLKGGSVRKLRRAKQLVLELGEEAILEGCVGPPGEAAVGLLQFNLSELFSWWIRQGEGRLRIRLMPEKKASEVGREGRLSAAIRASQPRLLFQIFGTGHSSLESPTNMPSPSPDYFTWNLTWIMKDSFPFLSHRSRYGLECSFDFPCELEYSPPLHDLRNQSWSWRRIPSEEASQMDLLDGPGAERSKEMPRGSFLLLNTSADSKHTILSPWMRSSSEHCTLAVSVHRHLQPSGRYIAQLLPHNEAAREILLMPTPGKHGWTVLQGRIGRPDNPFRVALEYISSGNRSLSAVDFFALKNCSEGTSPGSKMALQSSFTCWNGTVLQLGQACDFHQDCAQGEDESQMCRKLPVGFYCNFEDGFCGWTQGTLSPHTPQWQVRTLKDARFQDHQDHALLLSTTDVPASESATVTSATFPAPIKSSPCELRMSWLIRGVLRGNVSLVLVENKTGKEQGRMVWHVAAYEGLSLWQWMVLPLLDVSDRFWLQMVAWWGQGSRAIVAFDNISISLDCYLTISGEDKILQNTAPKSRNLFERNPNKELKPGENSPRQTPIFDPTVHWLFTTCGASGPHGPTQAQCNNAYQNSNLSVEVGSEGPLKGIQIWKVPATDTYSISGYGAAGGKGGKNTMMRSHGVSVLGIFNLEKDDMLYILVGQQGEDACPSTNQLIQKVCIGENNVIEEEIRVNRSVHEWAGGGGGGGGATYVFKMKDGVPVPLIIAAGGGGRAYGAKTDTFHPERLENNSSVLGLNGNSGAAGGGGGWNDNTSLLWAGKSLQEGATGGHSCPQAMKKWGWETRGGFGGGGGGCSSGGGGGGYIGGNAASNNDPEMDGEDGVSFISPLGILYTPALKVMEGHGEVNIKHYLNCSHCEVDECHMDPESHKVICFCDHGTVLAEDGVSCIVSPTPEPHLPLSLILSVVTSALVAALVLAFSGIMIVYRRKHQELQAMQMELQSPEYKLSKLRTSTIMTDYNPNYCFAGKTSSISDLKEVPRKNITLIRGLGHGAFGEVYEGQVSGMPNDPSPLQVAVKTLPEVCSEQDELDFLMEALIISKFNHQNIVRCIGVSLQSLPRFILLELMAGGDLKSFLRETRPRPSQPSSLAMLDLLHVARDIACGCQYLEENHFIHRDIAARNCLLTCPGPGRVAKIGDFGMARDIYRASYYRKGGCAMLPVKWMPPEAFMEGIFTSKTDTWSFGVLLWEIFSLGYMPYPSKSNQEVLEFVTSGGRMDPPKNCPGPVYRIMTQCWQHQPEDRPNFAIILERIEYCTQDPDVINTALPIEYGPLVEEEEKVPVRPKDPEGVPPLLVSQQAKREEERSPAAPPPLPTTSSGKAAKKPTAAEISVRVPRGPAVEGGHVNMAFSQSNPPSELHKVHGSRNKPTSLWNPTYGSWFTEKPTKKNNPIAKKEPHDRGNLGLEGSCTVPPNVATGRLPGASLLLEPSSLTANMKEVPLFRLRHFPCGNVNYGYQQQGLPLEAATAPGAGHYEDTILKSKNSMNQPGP
In test [22] the target is Cyclin-dependent kinase 8 (Homo sapiens, UniProt P49336). Description: Navigating the Kinome. Panel member name: CDK8.
Test [23] concerns the target Mitogen-activated protein kinase 9 (Homo sapiens, UniProt P45984).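 Note: value from a kinome panel profiling assay, MAPK9 panel entry.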

Tyrosine-protein kinase Fyn, sequence (P06241 whole entry): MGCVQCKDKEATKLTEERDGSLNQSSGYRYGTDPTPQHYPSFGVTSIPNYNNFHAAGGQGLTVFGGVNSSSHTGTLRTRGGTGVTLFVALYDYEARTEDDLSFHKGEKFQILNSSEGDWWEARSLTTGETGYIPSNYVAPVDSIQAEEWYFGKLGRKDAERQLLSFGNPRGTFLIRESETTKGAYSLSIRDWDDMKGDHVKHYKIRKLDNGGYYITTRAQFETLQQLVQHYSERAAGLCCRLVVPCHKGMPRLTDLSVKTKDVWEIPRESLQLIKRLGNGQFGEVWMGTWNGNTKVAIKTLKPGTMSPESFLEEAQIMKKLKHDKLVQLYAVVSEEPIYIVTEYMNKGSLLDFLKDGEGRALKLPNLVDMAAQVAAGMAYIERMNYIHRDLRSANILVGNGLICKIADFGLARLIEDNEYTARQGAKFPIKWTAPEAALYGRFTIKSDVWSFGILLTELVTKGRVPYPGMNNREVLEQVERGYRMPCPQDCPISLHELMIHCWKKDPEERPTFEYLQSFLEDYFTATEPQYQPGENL
Glycogen synthase kinase-3 alpha, sequence (P49840 whole entry): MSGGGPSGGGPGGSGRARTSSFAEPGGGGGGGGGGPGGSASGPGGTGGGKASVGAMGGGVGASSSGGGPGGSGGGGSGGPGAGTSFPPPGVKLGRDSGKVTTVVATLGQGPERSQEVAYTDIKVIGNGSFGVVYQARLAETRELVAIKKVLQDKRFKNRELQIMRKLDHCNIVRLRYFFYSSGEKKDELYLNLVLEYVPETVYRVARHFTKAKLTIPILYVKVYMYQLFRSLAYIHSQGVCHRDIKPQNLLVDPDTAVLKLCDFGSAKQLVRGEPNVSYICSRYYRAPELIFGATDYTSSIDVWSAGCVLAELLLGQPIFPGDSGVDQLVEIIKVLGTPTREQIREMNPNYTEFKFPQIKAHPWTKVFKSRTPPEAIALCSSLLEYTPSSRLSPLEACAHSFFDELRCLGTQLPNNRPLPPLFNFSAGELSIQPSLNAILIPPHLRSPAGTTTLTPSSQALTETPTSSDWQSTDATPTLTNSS
Mitogen-activated protein kinase kinase kinase kinase 2, sequence (Q12851 whole entry): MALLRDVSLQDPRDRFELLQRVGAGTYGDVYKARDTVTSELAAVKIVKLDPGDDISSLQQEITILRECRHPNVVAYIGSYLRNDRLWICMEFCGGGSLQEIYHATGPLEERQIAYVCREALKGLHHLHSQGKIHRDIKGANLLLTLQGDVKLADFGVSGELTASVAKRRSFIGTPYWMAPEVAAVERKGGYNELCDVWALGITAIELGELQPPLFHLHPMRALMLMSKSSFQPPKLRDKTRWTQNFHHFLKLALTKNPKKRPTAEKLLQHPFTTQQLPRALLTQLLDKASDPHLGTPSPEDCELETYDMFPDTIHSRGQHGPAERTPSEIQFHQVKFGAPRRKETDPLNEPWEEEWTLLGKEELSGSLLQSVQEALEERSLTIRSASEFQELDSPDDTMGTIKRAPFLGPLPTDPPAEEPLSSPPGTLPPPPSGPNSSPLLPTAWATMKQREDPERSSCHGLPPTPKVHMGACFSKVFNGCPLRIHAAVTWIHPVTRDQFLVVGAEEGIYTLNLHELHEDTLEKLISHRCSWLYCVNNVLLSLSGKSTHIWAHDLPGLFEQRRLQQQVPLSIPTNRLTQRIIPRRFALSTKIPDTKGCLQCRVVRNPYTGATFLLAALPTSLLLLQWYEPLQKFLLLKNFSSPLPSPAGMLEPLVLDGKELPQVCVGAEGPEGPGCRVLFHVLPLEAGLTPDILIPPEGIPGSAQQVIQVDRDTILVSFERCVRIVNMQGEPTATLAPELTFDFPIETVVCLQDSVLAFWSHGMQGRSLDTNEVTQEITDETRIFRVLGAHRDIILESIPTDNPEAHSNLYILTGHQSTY
Tyrosine-protein kinase ABL1, sequence (P00519 whole entry): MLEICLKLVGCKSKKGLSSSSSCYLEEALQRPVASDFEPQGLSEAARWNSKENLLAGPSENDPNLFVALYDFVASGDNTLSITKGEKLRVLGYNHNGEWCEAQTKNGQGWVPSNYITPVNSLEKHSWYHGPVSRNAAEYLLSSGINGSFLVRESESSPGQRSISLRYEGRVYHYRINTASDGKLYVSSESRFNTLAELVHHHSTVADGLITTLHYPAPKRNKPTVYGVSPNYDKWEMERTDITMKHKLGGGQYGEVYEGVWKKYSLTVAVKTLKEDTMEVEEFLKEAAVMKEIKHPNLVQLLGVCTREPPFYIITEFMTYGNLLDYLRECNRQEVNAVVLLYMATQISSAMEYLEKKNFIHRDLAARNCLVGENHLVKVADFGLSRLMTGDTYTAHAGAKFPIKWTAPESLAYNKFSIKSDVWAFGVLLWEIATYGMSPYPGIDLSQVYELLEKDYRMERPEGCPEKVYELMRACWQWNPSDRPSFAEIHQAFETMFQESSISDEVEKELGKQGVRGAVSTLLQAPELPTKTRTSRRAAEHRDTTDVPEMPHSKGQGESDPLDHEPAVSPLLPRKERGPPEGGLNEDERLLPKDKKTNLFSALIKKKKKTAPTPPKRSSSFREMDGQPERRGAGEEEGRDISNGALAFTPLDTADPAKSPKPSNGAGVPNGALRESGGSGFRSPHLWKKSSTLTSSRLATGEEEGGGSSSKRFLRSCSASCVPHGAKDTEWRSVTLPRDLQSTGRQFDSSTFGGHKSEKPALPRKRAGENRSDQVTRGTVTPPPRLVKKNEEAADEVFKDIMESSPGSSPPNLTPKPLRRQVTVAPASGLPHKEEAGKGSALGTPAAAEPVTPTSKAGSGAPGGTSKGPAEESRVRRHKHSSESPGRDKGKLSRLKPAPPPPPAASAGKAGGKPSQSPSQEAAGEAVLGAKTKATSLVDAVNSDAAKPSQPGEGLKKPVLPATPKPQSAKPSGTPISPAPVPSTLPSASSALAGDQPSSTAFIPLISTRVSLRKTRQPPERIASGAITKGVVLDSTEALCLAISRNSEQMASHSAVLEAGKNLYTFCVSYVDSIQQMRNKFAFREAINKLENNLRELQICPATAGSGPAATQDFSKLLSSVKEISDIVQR

With `CCCNC(=O)c1c(N)n(CC2CCCO2)c2nc3ccccc3nc12` (stereo not drawn), in test [1], the IC50 is 58.6 µM (active).
In the case of `COc1c(-c2nc3ccccc3[nH]2)c(O)cc2oc(C)cc(=O)c12`, the Ki in [2] was 0.794 µM (active); in [3], 0.316 µM (active); in test [4], 3.16 µM (active); in test [5], 0.501 µM (active); in test [6], 3.98 µM (active); in test [7], 1.58 µM (active). Further, the Ki in [8] is 0.398 µM (active); in test [9] it was 0.398 µM (active); in [10], 0.631 µM (active); in test [11], 0.158 µM (active); at Aurora kinase A, 0.251 µM (active); in [12], 1.26 µM (active). The Ki in test [13] is 2 µM (active); in test [14], 0.501 µM (active); in [15], 0.398 µM (active); in [16], 0.501 µM (active); in [17], 2 µM (active); in test [18], 2.51 µM (active). Moreover, the Ki in [19] was 1 µM (active); in test [20] it was 0.794 µM (active); in test [21], 1.26 µM (active); in test [22], 0.316 µM (active); in test [23] it was 2.51 µM (active).
For `COC(=O)c1c(N)nc2ccccn12`, the Ki in test [2] was 2.51 µM (active); in [4], 39.8 µM (active); in [5], 63.1 µM (active); in test [6] it was 100 µM (active); in [7], 6.31 µM (active); in [8], > 100 µM (inactive). In addition, the Ki in test [10] was 7.94 µM (active); in [11], 39.8 µM (active); at Aurora kinase A it was > 63.1 µM (inactive); in test [12], 63.1 µM (active); in [13] it was 79.4 µM (active); in [14] it was 50.1 µM (active). Further, the Ki is 10 µM (active) in [16]; 50.1 µM (active) in [18]; 100 µM (active) in [20]; 25.1 µM (active) in test [21]; 20 µM (active) in test [22]; 31.6 µM (active) in [23].
`CCc1ccc(S(=O)(=O)/N=C2\C=C(Nc3ccc(O)cc3)C(=O)c3ccccc32)cc1`: in test [1], the IC50 was 1.97 µM (active).
For the compound `Cc1ccc(F)c(NC(=O)Nc2ccc(-c3cccc4[nH]nc(N)c34)cc2)c1` [LINIFANIB], the Ki was > 3.16 µM (inactive) in test [3]; > 3.16 µM (inactive) in test [9]; > 6.31 µM (inactive) in test [15]; > 6.31 µM (inactive) in [17]; > 3.98 µM (inactive) in test [19].

A word on the IC50: it is the concentration needed to halve the response being measured. As a reminder, the Ki is the dissociation constant of the complex between target and ligand, obtained from inhibition or displacement.
